Holding throughout (type): functional, cell-based
Test [1] concerns the target T1, 5-hydroxytryptamine receptor 2C (Homo sapiens) (UniProt P28335).
T1 sequence (whole entry): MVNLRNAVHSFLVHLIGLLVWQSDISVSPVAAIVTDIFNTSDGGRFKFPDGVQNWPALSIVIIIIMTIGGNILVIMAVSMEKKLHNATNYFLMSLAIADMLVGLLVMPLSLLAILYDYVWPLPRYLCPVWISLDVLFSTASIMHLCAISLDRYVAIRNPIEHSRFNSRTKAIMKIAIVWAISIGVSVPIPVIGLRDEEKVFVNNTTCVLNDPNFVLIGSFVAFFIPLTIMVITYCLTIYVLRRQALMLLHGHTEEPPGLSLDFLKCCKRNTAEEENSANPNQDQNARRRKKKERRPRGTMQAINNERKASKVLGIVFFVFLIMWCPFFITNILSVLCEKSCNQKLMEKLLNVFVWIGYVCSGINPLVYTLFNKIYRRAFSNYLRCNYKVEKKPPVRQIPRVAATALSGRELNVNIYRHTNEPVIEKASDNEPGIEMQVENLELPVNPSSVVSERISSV
In words: Agonist activity at recombinant human 5HT2C-INI receptor expressed in Flp-In-293 cells assessed as calcium flux by FLIPR assay relative to 5-HT. (In general: Calcium assays in cells follow changes in intracellular calcium, usually with a dye or a luminescent sensor.)

The target of test [2] is 5-hydroxytryptamine receptor 2A (Homo sapiens, UniProt P28223). The test can be described thus: Agonist activity at human 5HT2A receptor expressed in Flp-In-293 cells assessed as calcium flux by FLIPR assay relative to 5-HT.
For test [3], the target named is 5-hydroxytryptamine receptor 2B (Homo sapiens, UniProt P41595). The test can be described thus: Agonist activity at recombinant human 5HT2B receptor expressed in Flp-In-293 cells assessed as calcium flux by FLIPR assay relative to 5-HT.
Sequence of 5-hydroxytryptamine receptor 2B (P41595 whole entry): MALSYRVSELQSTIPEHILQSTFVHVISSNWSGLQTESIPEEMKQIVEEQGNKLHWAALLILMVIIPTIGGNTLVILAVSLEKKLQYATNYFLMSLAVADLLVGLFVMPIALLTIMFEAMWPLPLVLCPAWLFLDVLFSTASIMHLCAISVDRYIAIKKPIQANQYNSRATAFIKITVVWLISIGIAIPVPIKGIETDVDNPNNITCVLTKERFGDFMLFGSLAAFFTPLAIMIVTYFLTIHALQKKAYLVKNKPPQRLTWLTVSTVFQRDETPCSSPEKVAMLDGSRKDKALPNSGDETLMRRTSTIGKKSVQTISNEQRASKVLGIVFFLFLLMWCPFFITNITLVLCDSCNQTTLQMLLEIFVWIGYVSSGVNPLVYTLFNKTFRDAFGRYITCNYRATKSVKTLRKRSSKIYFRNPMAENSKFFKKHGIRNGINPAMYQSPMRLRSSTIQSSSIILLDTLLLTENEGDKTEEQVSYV

Sequence of 5-hydroxytryptamine receptor 2A (P28223 whole entry): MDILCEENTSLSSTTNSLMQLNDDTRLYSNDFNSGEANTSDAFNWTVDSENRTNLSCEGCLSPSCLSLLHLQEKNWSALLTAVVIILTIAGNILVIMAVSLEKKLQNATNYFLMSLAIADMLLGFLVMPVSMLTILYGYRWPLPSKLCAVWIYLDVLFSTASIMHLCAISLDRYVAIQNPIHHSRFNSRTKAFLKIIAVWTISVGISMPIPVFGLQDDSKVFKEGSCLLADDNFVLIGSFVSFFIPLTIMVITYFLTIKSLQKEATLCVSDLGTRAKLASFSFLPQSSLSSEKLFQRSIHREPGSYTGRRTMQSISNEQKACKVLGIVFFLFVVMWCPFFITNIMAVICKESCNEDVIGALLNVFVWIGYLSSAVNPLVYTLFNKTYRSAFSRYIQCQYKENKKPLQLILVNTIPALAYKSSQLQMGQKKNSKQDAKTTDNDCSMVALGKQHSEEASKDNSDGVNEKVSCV

In general, Emax refers to the maximal effect, on the per cent scale that the assay sets. `COc1ccc(F)c(Cl)c1C1CC1CN` (single isomer, unassigned; (-)): the results for the Emax in test [1] and in test [2] were 96% and 72%, respectively.

In the case of `NCC1CC1c1cc(Cl)c(F)cc1OCCF` (single isomer, unassigned; (+)), the Emax in test [1] was determined as 87%; in test [3] it was 39%.

As to `NCC1CC1c1cc(F)c(F)cc1OCCF` (single isomer, unassigned; (+)), the Emax in test [1] was 95%.

Take `C=CCOc1cc(Cl)c(Cl)cc1C1CC1CN` (single isomer, unassigned; (+)): the Emax in test [1] is 88%.

For the compound `NCC1CC1c1cc(F)c(F)cc1OCCF` (single isomer, unassigned; (-)), the Emax in test [1] came out at 73%.

As for `NCC1CC1c1cc(Cl)c(Cl)cc1OCCF` (single isomer, unassigned; (-)), the maximal response (Emax) in test [1] was found to be 75%.

As for `C=CCOc1ccc(Cl)c(F)c1C1CC1CN` (stereo in doubt; (-)-22d), the Emax in test [1] amounted to 87%.

Regarding `NCC1CC1c1cc(Cl)c(Cl)cc1OCCF` (single isomer, unassigned; (+)), in test [1], the Emax came to 87%.

For the compound `NCC1CC1c1c(OCCF)ccc(F)c1Cl` (single isomer, unassigned; (+)), the maximum response (Emax) in test [1] was 86%.

For the compound `NCC1CC1c1c(OCCF)ccc(Cl)c1F` (single isomer, unassigned; (-)), the Emax in test [1] came to 80%.

As to `C=CCOc1cc(F)c(Cl)cc1C1CC1CN` (single isomer, unassigned; (+)), the figures for the Emax in test [1] and in test [3] were 87% and 34%, respectively.

For the compound `NCC1CC1c1c(OCCF)ccc(F)c1F` (single isomer, unassigned; (-)), the Emax in test [1] was determined as 78%.

For the compound `C=CCOc1ccc(Cl)c(Cl)c1C1CC1CN` (stereo in doubt; (-)-22f), the Emax in test [1] was 93%.

In the case of `NCC1CC1c1c(OCCF)ccc(Cl)c1F` (stereo in doubt; (+)-21d), in test [1], the Emax turned out to be 86%.

On to `NCC1CC1c1cc(Cl)c(F)cc1OCCF` (stereo in doubt; (-)-21c), for which the results for the Emax in test [1] and in test [3] were 70% and 26%, respectively.

As for `C=CCOc1ccc(Cl)c(F)c1C1CC1CN` (single isomer, unassigned; (+)), in test [1], the Emax was 90%.

`C=CCOc1ccc(F)c(F)c1C1CC1CN` (single isomer, unassigned; (+)): the Emax stood at 100% in test [1] and 35% in test [3].

With `NCC1CC1c1c(OCCF)ccc(F)c1F` (single isomer, unassigned; (+)), the Emax in test [1] was 96%.

As for `C=CCOc1ccc(F)c(F)c1C1CC1CN` (single isomer, unassigned; (-)), the Emax in test [1] is 89%; in test [3], 26%.

As to `NCC1CC1c1c(OCCF)ccc(F)c1Cl` (stereo in doubt; (-)-21g), the Emax in test [1] was 80%.

As to `COc1cc(F)c(F)cc1C1CC1CN` (single isomer, unassigned; (+)), the Emax in test [1] is 108%; in test [3], 69%.

On to `COc1cc(F)c(F)cc1C1CC1CN` (single isomer, unassigned; (-)), for which the Emax stood at 104% in test [1] and 59% in test [3].

For `C=CCOc1ccc(Cl)c(Cl)c1C1CC1CN` (single isomer, unassigned; (+)), in test [1], the Emax came to 70%.

As to `C=CCOc1ccc(F)c(Cl)c1C1CC1CN` (single isomer, unassigned; (-)), the Emax in test [1] stood at 89%.

With `NCC1CC1c1c(OCCF)ccc(Cl)c1Cl` (single isomer, unassigned; (+)), the Emax in test [1] stood at 90%.

In the case of `C=CCOc1ccc(F)c(Cl)c1C1CC1CN` (single isomer, unassigned; (+)), in test [1], the Emax is 92%.

For the compound `C=CCOc1cc(F)c(Cl)cc1C1CC1CN` (single isomer, unassigned; (-)), the Emax is 77% in test [1] and 22% in test [3].

Consider `NCC1CC1c1c(OCCF)ccc(Cl)c1Cl` (single isomer, unassigned; (-)), for which, in test [1], the Emax stood at 85%.

As for `C=CCOc1cc(Cl)c(Cl)cc1C1CC1CN` (stereo in doubt; (-)-22e), the Emax in test [1] came to 84%.

The values above are taken from ChEMBL document CHEMBL3769385 (J Med Chem, 2016).
